# Assay results: article PMC12073679, “Drug Repurposing to Inhibit Oncostatin M in Crohn’s Disease” (Molecules, 2025)
# Molecular target: T1, recombinant human oncostatin M (Homo sapiens, UniProt P13725)
# T1 construct: gene OSM; labelled with RED-NHS 2nd generation dye for MST
# T1 sequence (P13725 26-221): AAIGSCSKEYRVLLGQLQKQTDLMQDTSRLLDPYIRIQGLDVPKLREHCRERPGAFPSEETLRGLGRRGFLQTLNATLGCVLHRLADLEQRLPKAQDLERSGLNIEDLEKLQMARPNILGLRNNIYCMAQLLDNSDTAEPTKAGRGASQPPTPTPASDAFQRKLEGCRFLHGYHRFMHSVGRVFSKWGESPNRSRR
# Assay: microscale thermophoresis
# Format: binding
smiles,measurement,value
"CC1(C)[C@@H]2CC[C@@]1(CS(=O)(=O)O)C(=O)/C2=C/c1ccc(/C=C2/C(=O)[C@]3(CS(=O)(=O)O)CC[C@H]2C3(C)C)cc1 [1a, Ecamsule]",Kd,11.4 ± 2.83 µM
